Reference: patent US20230085307A1, “PYRIDAZINONE COMPOUND AND HERBICIDE” (NISSAN CHEMICAL CORPORATION, priority 2019, published 2023)

Columns and labels:
southern crabgrass = assay: Test Example 5: herbicidal effect by foliage application, plastic box (Table 20, symbol F); format: in vivo, southern crabgrass (Digitaria ciliaris); conditions: 320 g/ha; for herbicidal effect on F: southern crabgrass (evaluation grade 0-5): foliage application after 14-day growth, evaluated three weeks after application
Summary of the method: (§1)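 Foliar spray test: emulsion formulation diluted in water to a set application rate, sprayed onto 14-day-old plants raised in diluvial soil at 25° C to 30° C under glass. Both herbicidal effect and crop effect rated visually three weeks later.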

velvetleaf = assay: Test Example 5: herbicidal effect by foliage application, plastic box (Table 20, symbol M); format: in vivo, velvetleaf (Abutilon theophrasti); conditions: 320 g/ha; for herbicidal effect on M: velvetleaf (evaluation grade 0-5): foliage application after 14-day growth, evaluated three weeks after application
Summary of the method: as §1

rice flat sedge = assay: Test Example 3: herbicidal effect by foliage application, Wagner pot (Table 18, symbol E); format: in vivo, rice flat sedge (Cyperus iria); conditions: for herbicidal effect on rice flat sedge (E): 320 g/ha
Summary of the method: (§2)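 Plants were sown in alluvial soil held under 0.1–0.5 cm standing water and grown 14 days in a greenhouse at 25–30 °C. An emulsifiable formulation, water-diluted to the set dose, was then sprayed onto the foliage, and effects were scored three weeks later using previously defined criteria.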

wild oat = assay: Test Example 5: herbicidal effect by foliage application, plastic box (Table 20, symbol I); format: in vivo, wild oat (Avena fatua); conditions: 320 g/ha; for herbicidal effect on I: wild oat (evaluation grade 0-5): foliage application after 14-day growth, evaluated three weeks after application
Summary of the method: as §1

persian speedwell = assay: Test Example 5: herbicidal effect by foliage application, plastic box (Table 20, symbol R); format: in vivo, Persian speedwell (Veronica persica); conditions: 320 g/ha; for herbicidal effect on R: persian speedwell (evaluation grade 0-5): foliage application after 14-day growth, evaluated three weeks after application
Summary of the method: as §1

Italian ryegrass = assay: Test Example 5: herbicidal effect by foliage application, plastic box (Table 20, symbol K); format: in vivo, Italian ryegrass (Lolium multiflorum); conditions: 320 g/ha; for herbicidal effect on K: Italian ryegrass (evaluation grade 0-5): foliage application after 14-day growth, evaluated three weeks after application
Summary of the method: as §1

barnyard grass [1] = assay: Test Example 5: herbicidal effect by foliage application, plastic box (Table 20, symbol H); format: in vivo, barnyard grass (Echinochloa crus-galli); conditions: 320 g/ha; for herbicidal effect on H: barnyard grass (evaluation grade 0-5): foliage application after 14-day growth, evaluated three weeks after application
Summary of the method: as §1

Chinese sprangletop = assay: Test Example 3: herbicidal effect by foliage application, Wagner pot (Table 18, symbol D); format: in vivo, chinese sprangletop (Leptochloa chinensis); conditions: for herbicidal effect on Chinese sprangletop (D): 320 g/ha
Summary of the method: as §2

barnyard grass [2] = assay: Test Example 3: herbicidal effect by foliage application, Wagner pot (Table 18, symbol H); format: in vivo, barnyard grass (Echinochloa crus-galli); conditions: for herbicidal effect on barnyard grass (H): 320 g/ha
Summary of the method: as §2

redroot pigweed = assay: Test Example 5: herbicidal effect by foliage application, plastic box (Table 20, symbol N); format: in vivo, redroot pigweed (Amaranthus retroflexus); conditions: 320 g/ha; for herbicidal effect on N: redroot pigweed (evaluation grade 0-5): foliage application after 14-day growth, evaluated three weeks after application
Summary of the method: as §1

blackgrass = assay: Test Example 5: herbicidal effect by foliage application, plastic box (Table 20, symbol J); format: in vivo, blackgrass (Alopecurus myosuroides); conditions: 320 g/ha; for herbicidal effect on J: blackgrass (evaluation grade 0-5): foliage application after 14-day growth, evaluated three weeks after application
Summary of the method: as §1

lambsquarters = assay: Test Example 5: herbicidal effect by foliage application, plastic box (Table 20, symbol O); format: in vivo, lambsquarters (Chenopodium album); conditions: 320 g/ha; for herbicidal effect on O: lambsquarters (evaluation grade 0-5): foliage application after 14-day growth, evaluated three weeks after application
Summary of the method: as §1

windgrass = assay: Test Example 5: herbicidal effect by foliage application, plastic box (Table 20, symbol L); format: in vivo, windgrass (Apera spica-venti); conditions: 320 g/ha; for herbicidal effect on L: windgrass (evaluation grade 0-5): foliage application after 14-day growth, evaluated three weeks after application
Summary of the method: as §1

chickweed = assay: Test Example 5: herbicidal effect by foliage application, plastic box (Table 20, symbol P); format: in vivo, common chickweed (Stellaria media); conditions: 320 g/ha; for herbicidal effect on P: chickweed (evaluation grade 0-5): foliage application after 14-day growth, evaluated three weeks after application
Summary of the method: as §1

green foxtail = assay: Test Example 5: herbicidal effect by foliage application, plastic box (Table 20, symbol G); format: in vivo, green foxtail (Setaria viridis); conditions: 320 g/ha; for herbicidal effect on G: green foxtail (evaluation grade 0-5): foliage application after 14-day growth, evaluated three weeks after application
Summary of the method: as §1

[3] = foliage application, three weeks after application
[4] = amount of applied herbicide 320 g/ha

Compound	herbicidal effect on F: southern crabgrass (evaluation grade 0-5) (southern crabgrass)	herbicidal effect on M: velvetleaf (evaluation grade 0-5) (velvetleaf)	herbicidal effect on rice flat sedge (E) (rice flat sedge)	herbicidal effect on I: wild oat (evaluation grade 0-5) (wild oat)	herbicidal effect on R: persian speedwell (evaluation grade 0-5) (persian speedwell)	herbicidal effect on K: Italian ryegrass (evaluation grade 0-5) (Italian ryegrass)	herbicidal effect on H: barnyard grass (evaluation grade 0-5) (barnyard grass [1])	herbicidal effect on Chinese sprangletop (D) (Chinese sprangletop)	herbicidal effect on barnyard grass (H) (barnyard grass [2])	herbicidal effect on N: redroot pigweed (evaluation grade 0-5) (redroot pigweed)	herbicidal effect on J: blackgrass (evaluation grade 0-5) (blackgrass)	herbicidal effect on O: lambsquarters (evaluation grade 0-5) (lambsquarters)	herbicidal effect on L: windgrass (evaluation grade 0-5) (windgrass)	herbicidal effect on P: chickweed (evaluation grade 0-5) (chickweed)	herbicidal effect on G: green foxtail (evaluation grade 0-5) (green foxtail)	also measured
Cc1nn(C)c(=O)c(-c2c(-c3ccc(Cl)cc3)sc3cc(F)ccc23)c1O [3-015]																F: southern crabgrass, herbicidal effect grade (southern crabgrass; [3]): 0 (Herbicidal rate of 5% or less (almost no effect)); M: velvetleaf, herbicidal effect grade (velvetleaf; [3]): 0 (Herbicidal rate of 5% or less (almost no effect)); herbicidal effect on E: rice flat sedge (rice flat sedge; [4]): 3 (Herbicidal rate of 40% or more and less than 70%); I: wild oat, herbicidal effect grade (wild oat; [3]): 0 (Herbicidal rate of 5% or less (almost no effect)); R: persian speedwell, herbicidal effect grade (persian speedwell; [3]): 2 (Herbicidal rate of 20% or more and less than 40%); K: Italian ryegrass, herbicidal effect grade (Italian ryegrass; [3]): 0 (Herbicidal rate of 5% or less (almost no effect)); H: barnyard grass, herbicidal effect grade (barnyard grass [1]; [3]): 0 (Herbicidal rate of 5% or less (almost no effect)); herbicidal effect on D: Chinese sprangletop (Chinese sprangletop; [4]): 3 (Herbicidal rate of 40% or more and less than 70%); herbicidal effect on H: barnyard grass (barnyard grass [2]; [4]): 3 (Herbicidal rate of 40% or more and less than 70%); N: redroot pigweed, herbicidal effect grade (redroot pigweed; [3]): 2 (Herbicidal rate of 20% or more and less than 40%); J: blackgrass, herbicidal effect grade (blackgrass; [3]): 1 (Herbicidal rate of 5% or more and less than 20%); O: lambsquarters, herbicidal effect grade (lambsquarters; [3]): 0 (Herbicidal rate of 5% or less (almost no effect)); L: windgrass, herbicidal effect grade (windgrass; [3]): 5 (Herbicidal rate of 90% or more (almost completely withered)); P: chickweed, herbicidal effect grade (chickweed; [3]): 4 (Herbicidal rate of 70% or more and less than 90%); G: green foxtail, herbicidal effect grade (green foxtail; [3]): 0 (Herbicidal rate of 5% or less (almost no effect))
Cc1nn(C)c(=O)c(-c2c(-c3ccc(OC(F)F)cc3)sc3cc(Cl)ccc23)c1O [3-147]	3 (Herbicidal rate of 40% or more and less than 70%)	4 (Herbicidal rate of 70% or more and less than 90%)	3 (Herbicidal rate of 40% or more and less than 70%)	3 (Herbicidal rate of 40% or more and less than 70%)	5 (Herbicidal rate of 90% or more (almost completely withered))	3 (Herbicidal rate of 40% or more and less than 70%)	3 (Herbicidal rate of 40% or more and less than 70%)	2 (Herbicidal rate of 20% or more and less than 40%)	4 (Herbicidal rate of 70% or more and less than 90%)	4 (Herbicidal rate of 70% or more and less than 90%)	5 (Herbicidal rate of 90% or more (almost completely withered))	5 (Herbicidal rate of 90% or more (almost completely withered))	5 (Herbicidal rate of 90% or more (almost completely withered))	5 (Herbicidal rate of 90% or more (almost completely withered))	5 (Herbicidal rate of 90% or more (almost completely withered))	
Cc1nn(C)c(=O)c(-c2c(-c3ccc(C(F)(F)F)cc3F)sc3c(Cl)cccc23)c1O [4-037]	0 (Herbicidal rate of 5% or less (almost no effect))	5 (Herbicidal rate of 90% or more (almost completely withered))	0 (Herbicidal rate of 5% or less (almost no effect))	0 (Herbicidal rate of 5% or less (almost no effect))	0 (Herbicidal rate of 5% or less (almost no effect))	0 (Herbicidal rate of 5% or less (almost no effect))	0 (Herbicidal rate of 5% or less (almost no effect))	1 (Herbicidal rate of 5% or more and less than 20%)	3 (Herbicidal rate of 40% or more and less than 70%)	5 (Herbicidal rate of 90% or more (almost completely withered))	0 (Herbicidal rate of 5% or less (almost no effect))	5 (Herbicidal rate of 90% or more (almost completely withered))	5 (Herbicidal rate of 90% or more (almost completely withered))	4 (Herbicidal rate of 70% or more and less than 90%)	2 (Herbicidal rate of 20% or more and less than 40%)	
